Measured values taken from the CheMixHub viscosity set.

Test: xn = mol fraction of the nth substance listed

N[C@@H](Cc1c[nH]cn1)C(=O)O + O
Conditions | viscosity [mPa·s]
293.15 K, 101 kPa, x1 = 0.005413 | 1.128
298.15 K, 100 kPa, x1 = 0.000193 | 0.8927
298.15 K, 100 kPa, x1 = 0.00027 | 0.898
298.15 K, 100 kPa, x1 = 0.00036 | 0.899
298.15 K, 100 kPa, x1 = 0.000403 | 0.895
298.15 K, 100 kPa, x1 = 0.00063 | 0.904
298.15 K, 100 kPa, x1 = 0.00072 | 0.907
298.15 K, 100 kPa, x1 = 0.00074 | 0.8987
298.15 K, 100 kPa, x1 = 0.00081 | 0.907
298.15 K, 100 kPa, x1 = 0.00099 | 0.91
298.15 K, 100 kPa, x1 = 0.00117 | 0.913
298.15 K, 100 kPa, x1 = 0.00171 | 0.921
298.15 K, 100 kPa, x1 = 0.001798 | 0.9349
298.15 K, 100 kPa, x1 = 0.0018 | 0.927
298.15 K, 100 kPa, x1 = 0.002157 | 0.9434
298.15 K, 100 kPa, x1 = 0.002516 | 0.9518
298.15 K, 100 kPa, x1 = 0.002876 | 0.9604
298.15 K, 101 kPa, x1 = 0.00027 | 0.898
298.15 K, 101 kPa, x1 = 0.00063 | 0.9034
298.15 K, 101 kPa, x1 = 0.0013 | 0.9127
298.15 K, 101 kPa, x1 = 0.00207 | 0.9208
298.15 K, 101.3 kPa, x1 = 0.0004504 | 0.898
298.15 K, 101.3 kPa, x1 = 0.0008971 | 0.903
298.15 K, 101.3 kPa, x1 = 0.001791 | 0.913
298.15 K, 101.3 kPa, x1 = 0.002688 | 0.924
303.15 K, 100 kPa, x1 = 0.00036 | 0.804
303.15 K, 100 kPa, x1 = 0.00045 | 0.807
303.15 K, 100 kPa, x1 = 0.00054 | 0.807
303.15 K, 100 kPa, x1 = 0.00108 | 0.817
303.15 K, 100 kPa, x1 = 0.00126 | 0.821
303.15 K, 100 kPa, x1 = 0.00144 | 0.827
303.15 K, 100 kPa, x1 = 0.00153 | 0.824
303.15 K, 100 kPa, x1 = 0.00162 | 0.827
303.15 K, 100 kPa, x1 = 0.002157 | 0.8407
303.15 K, 100 kPa, x1 = 0.002516 | 0.8474
303.15 K, 100 kPa, x1 = 0.002876 | 0.8544
303.15 K, 101 kPa, x1 = 0.00027 | 0.8035
303.15 K, 101 kPa, x1 = 0.00063 | 0.8079
303.15 K, 101 kPa, x1 = 0.0013 | 0.8152
303.15 K, 101 kPa, x1 = 0.00243 | 0.8255
303.15 K, 101 kPa, x1 = 0.003563 | 0.8636
303.15 K, 101 kPa, x1 = 0.005413 | 0.8992
303.15 K, 101.3 kPa, x1 = 0.0004504 | 0.804
303.15 K, 101.3 kPa, x1 = 0.002239 | 0.824
308.15 K, 100 kPa, x1 = 0.00027 | 0.727
308.15 K, 100 kPa, x1 = 0.00054 | 0.727
308.15 K, 100 kPa, x1 = 0.00135 | 0.743
308.15 K, 100 kPa, x1 = 0.00143 | 0.74
308.15 K, 100 kPa, x1 = 0.00144 | 0.7434
308.15 K, 100 kPa, x1 = 0.00171 | 0.748
308.15 K, 100 kPa, x1 = 0.002157 | 0.7543
308.15 K, 100 kPa, x1 = 0.002516 | 0.7596
308.15 K, 100 kPa, x1 = 0.002876 | 0.7651
308.15 K, 101 kPa, x1 = 0.00027 | 0.724
308.15 K, 101 kPa, x1 = 0.00063 | 0.7274
308.15 K, 101 kPa, x1 = 0.00099 | 0.7304
308.15 K, 101 kPa, x1 = 0.0013 | 0.7334
308.15 K, 101 kPa, x1 = 0.00243 | 0.7421
308.15 K, 101.3 kPa, x1 = 0.0004504 | 0.723
308.15 K, 101.3 kPa, x1 = 0.0008971 | 0.728
308.15 K, 101.3 kPa, x1 = 0.001346 | 0.733
308.15 K, 101.3 kPa, x1 = 0.002239 | 0.743
308.15 K, 101.3 kPa, x1 = 0.002688 | 0.748
313.15 K, 100 kPa, x1 = 0.000358 | 0.6589
313.15 K, 100 kPa, x1 = 0.00036 | 0.657
313.15 K, 100 kPa, x1 = 0.00099 | 0.672
313.15 K, 100 kPa, x1 = 0.00171 | 0.682
313.15 K, 100 kPa, x1 = 0.001798 | 0.6769
313.15 K, 100 kPa, x1 = 0.002516 | 0.6853
313.15 K, 100 kPa, x1 = 0.002876 | 0.6895
313.15 K, 101 kPa, x1 = 0.00027 | 0.6566
313.15 K, 101 kPa, x1 = 0.00063 | 0.6592
313.15 K, 101 kPa, x1 = 0.00092 | 0.6773
313.15 K, 101 kPa, x1 = 0.00243 | 0.6716
313.15 K, 101 kPa, x1 = 0.003563 | 0.7141
313.15 K, 101.3 kPa, x1 = 0.0004504 | 0.657
313.15 K, 101.3 kPa, x1 = 0.001791 | 0.672
313.15 K, 101.3 kPa, x1 = 0.002239 | 0.677
313.15 K, 101.3 kPa, x1 = 0.002688 | 0.682
318.15 K, 100 kPa, x1 = 0.00027 | 0.603
318.15 K, 100 kPa, x1 = 0.000358 | 0.6026
318.15 K, 100 kPa, x1 = 0.000718 | 0.6065
318.15 K, 100 kPa, x1 = 0.00099 | 0.614
318.15 K, 100 kPa, x1 = 0.00108 | 0.61
318.15 K, 100 kPa, x1 = 0.00117 | 0.616
318.15 K, 100 kPa, x1 = 0.00135 | 0.618
318.15 K, 100 kPa, x1 = 0.00144 | 0.6135
318.15 K, 100 kPa, x1 = 0.00171 | 0.623
318.15 K, 100 kPa, x1 = 0.002157 | 0.62
318.15 K, 100 kPa, x1 = 0.002516 | 0.6232
318.15 K, 100 kPa, x1 = 0.002876 | 0.6262
318.15 K, 101.3 kPa, x1 = 0.0004504 | 0.598
318.15 K, 101.3 kPa, x1 = 0.0008971 | 0.603
318.15 K, 101.3 kPa, x1 = 0.001791 | 0.613
318.15 K, 101.3 kPa, x1 = 0.002239 | 0.618
318.15 K, 101.3 kPa, x1 = 0.002688 | 0.623
323.15 K, 101 kPa, x1 = 0.00092 | 0.5791
323.15 K, 101 kPa, x1 = 0.001804 | 0.5862
323.15 K, 101 kPa, x1 = 0.003563 | 0.6075
323.15 K, 101 kPa, x1 = 0.005413 | 0.6374
